Results as given in US20240207283A1, “WATER SOLUBLE COMPLEX COMPOSITIONS AND METHODS THEREOF” (VETERINARY PHARMACY CORPORATION, priority 2021, published 2024).

Assays:
[1] = generally known; cited from earlier work
[2] = hydrotrope niacinamide

Cc1cnc(NC(=O)C2=C(O)c3ccccc3S(=O)(=O)N2C)s1 [meloxicam]
solubility in methanol [1]: slightly soluble in methanol
solubility in water [1]: insoluble in water

CN1C(C(=O)Nc2ccccn2)=C(O)c2ccccc2S1(=O)=O [piroxicam]
pH above which the clear solution begins to form [2]: above 9.0
